Data taken from the kinase profiling compilation of Christmann-Franck et al. (2016).

Columns and labels:
Assay in all cases: KINOMEscan competition binding
Settings in all cases: compound 10.0 µM
RIOK2 (human) = RIOK2 (human) (UniProt Q9BVS4)
MAPK14 (human) = MAPK14 (human) (UniProt Q16539)
EPHA8 (human) = EPHA8 (human) (UniProt P29322)
ABL2 (human) = ABL2 (human) (UniProt P42684)
MAP3K9 (human) = MAP3K9 (human) (UniProt P80192)
[1] = tested on: KIT (human), P10721 [V559D]
NTRK2 (human) = NTRK2 (human) (UniProt Q16620)
SGK110 (human) = SGK110 (human) (UniProt P0C264)
MAPK9 (human) = MAPK9 (human) (UniProt P45984)
CSNK1A1L (human) = CSNK1A1L (human) (UniProt Q8N752)
MAPK8 (human) = MAPK8 (human) (UniProt P45983)
PHKG1 (human) = PHKG1 (human) (UniProt Q16816)
SLK (human) = SLK (human) (UniProt Q9H2G2)
SRPK2 (human) = SRPK2 (human) (UniProt P78362)
PIM3 (human) = PIM3 (human) (UniProt Q86V86)
YES1 (human) = YES1 (human) (UniProt P07947)
MYO3B (human) = MYO3B (human) (UniProt Q8WXR4)
STK17B (human) = STK17B (human) (UniProt O94768)
STK4 (human) = STK4 (human) (UniProt Q13043)
PIK3C2B (human) = PIK3C2B (human) (UniProt O00750)
MAP3K10 (human) = MAP3K10 (human) (UniProt Q02779)
PIK3CD (human) = PIK3CD (human) (UniProt O00329)
NEK7 (human) = NEK7 (human) (UniProt Q8TDX7)
LATS1 (human) = LATS1 (human) (UniProt O95835)
DCLK1 (human) = DCLK1 (human) (UniProt O15075)
MKNK2 (human) = MKNK2 (human) (UniProt Q9HBH9)
PLK3 (human) = PLK3 (human) (UniProt Q9H4B4)
STK11 (human) = STK11 (human) (UniProt Q15831)
ANKK1 (human) = ANKK1 (human) (UniProt Q8NFD2)
CDK16 (human) = CDK16 (human) (UniProt Q00536)
CDC42BPA (human) = CDC42BPA (human) (UniProt Q5VT25)
TAOK3 (human) = TAOK3 (human) (UniProt Q9H2K8)
INSRR (human) = INSRR (human) (UniProt P14616)
MAP2K6 (human) = MAP2K6 (human) (UniProt P52564)
LIMK2 (human) = LIMK2 (human) (UniProt P53671)
PRKAA1 (human) = PRKAA1 (human) (UniProt Q13131)
STK17A (human) = STK17A (human) (UniProt Q9UEE5)
MYLK2 (human) = MYLK2 (human) (UniProt Q9H1R3)
[2] = tested on: ABL1 (human), P00519 [M351T]
SRC (human) = SRC (human) (UniProt P12931)

MAP2K6 (human), sequence (P52564 whole entry, looked up): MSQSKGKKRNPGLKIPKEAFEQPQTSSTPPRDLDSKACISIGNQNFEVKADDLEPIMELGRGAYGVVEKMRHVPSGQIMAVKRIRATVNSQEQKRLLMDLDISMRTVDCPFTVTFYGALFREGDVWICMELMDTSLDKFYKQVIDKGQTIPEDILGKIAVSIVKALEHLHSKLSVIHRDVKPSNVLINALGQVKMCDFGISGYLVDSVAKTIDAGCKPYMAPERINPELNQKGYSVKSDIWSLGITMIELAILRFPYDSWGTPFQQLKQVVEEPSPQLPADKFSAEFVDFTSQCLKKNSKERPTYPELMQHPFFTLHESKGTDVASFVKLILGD
MYLK2 (human), sequence (Q9H1R3 whole entry, looked up): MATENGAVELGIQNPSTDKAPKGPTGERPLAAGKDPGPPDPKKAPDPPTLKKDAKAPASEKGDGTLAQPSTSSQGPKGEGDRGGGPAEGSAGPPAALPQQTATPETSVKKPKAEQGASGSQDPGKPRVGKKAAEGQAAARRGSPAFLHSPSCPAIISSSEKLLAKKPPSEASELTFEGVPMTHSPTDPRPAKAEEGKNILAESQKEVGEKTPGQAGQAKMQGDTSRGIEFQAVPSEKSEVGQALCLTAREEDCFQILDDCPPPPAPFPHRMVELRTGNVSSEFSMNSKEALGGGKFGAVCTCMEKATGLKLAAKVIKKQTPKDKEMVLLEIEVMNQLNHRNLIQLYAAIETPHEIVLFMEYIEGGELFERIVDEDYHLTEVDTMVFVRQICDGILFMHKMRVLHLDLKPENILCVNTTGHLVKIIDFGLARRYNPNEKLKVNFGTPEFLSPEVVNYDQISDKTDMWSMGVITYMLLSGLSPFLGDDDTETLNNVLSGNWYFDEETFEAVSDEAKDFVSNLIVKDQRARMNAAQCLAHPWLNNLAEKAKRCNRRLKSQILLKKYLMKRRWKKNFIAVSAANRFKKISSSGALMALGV
CSNK1A1L (human), sequence (Q8N752 whole entry, looked up): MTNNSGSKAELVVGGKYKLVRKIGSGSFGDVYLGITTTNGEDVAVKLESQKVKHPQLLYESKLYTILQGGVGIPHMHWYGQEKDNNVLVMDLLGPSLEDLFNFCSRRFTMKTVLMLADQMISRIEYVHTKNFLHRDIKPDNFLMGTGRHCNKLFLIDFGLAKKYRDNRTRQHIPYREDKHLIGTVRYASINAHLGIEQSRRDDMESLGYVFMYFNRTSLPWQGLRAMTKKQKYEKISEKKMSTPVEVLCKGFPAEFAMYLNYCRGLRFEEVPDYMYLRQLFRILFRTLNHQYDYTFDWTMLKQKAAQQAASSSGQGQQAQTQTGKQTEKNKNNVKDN
MAP3K10 (human), sequence (Q02779 whole entry, looked up): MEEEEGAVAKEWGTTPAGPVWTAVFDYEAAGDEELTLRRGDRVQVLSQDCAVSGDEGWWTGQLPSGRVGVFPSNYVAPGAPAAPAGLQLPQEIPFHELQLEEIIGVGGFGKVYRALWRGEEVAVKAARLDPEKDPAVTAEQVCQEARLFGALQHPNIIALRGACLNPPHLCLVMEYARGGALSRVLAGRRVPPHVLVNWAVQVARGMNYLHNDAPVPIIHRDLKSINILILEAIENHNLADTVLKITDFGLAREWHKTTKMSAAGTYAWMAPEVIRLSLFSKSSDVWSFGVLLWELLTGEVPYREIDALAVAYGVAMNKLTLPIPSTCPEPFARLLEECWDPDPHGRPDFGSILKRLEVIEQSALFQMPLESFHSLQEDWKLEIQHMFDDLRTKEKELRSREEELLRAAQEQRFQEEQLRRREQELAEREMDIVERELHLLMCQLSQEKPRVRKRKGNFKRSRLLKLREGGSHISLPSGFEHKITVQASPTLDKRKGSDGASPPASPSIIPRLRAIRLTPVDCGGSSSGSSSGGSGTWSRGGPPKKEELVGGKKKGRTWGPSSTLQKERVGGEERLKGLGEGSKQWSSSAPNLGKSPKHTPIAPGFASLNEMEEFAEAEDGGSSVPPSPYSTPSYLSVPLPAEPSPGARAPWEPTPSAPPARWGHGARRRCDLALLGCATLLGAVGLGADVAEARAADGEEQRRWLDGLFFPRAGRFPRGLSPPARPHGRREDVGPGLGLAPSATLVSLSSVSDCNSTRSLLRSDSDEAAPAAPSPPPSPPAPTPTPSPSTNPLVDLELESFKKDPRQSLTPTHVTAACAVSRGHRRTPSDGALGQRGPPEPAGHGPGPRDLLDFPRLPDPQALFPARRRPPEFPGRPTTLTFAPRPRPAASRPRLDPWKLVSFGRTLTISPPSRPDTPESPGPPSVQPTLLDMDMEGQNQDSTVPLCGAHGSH
ANKK1 (human), sequence (Q8NFD2 whole entry, looked up): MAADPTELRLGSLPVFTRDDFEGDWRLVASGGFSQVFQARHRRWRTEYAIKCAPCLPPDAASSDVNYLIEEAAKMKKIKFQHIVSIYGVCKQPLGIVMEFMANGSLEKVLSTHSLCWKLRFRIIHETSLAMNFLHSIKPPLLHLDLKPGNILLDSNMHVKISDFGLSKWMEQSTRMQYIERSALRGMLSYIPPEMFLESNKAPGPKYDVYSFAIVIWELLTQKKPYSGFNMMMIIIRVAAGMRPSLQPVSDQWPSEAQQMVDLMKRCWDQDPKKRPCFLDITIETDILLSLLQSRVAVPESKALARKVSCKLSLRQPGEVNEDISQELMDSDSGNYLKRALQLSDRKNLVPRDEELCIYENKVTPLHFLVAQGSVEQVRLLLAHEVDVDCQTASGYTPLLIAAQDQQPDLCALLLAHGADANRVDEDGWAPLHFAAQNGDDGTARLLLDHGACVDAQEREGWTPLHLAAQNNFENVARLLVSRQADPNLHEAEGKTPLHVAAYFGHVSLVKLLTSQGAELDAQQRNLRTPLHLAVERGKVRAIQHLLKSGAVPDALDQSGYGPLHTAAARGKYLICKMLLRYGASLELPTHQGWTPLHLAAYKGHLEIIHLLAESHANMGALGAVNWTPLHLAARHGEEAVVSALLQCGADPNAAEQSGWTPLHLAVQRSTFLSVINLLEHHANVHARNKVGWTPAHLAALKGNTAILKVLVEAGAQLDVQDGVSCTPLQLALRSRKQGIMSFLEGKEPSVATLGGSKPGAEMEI
EPHA8 (human), sequence (P29322 whole entry, looked up): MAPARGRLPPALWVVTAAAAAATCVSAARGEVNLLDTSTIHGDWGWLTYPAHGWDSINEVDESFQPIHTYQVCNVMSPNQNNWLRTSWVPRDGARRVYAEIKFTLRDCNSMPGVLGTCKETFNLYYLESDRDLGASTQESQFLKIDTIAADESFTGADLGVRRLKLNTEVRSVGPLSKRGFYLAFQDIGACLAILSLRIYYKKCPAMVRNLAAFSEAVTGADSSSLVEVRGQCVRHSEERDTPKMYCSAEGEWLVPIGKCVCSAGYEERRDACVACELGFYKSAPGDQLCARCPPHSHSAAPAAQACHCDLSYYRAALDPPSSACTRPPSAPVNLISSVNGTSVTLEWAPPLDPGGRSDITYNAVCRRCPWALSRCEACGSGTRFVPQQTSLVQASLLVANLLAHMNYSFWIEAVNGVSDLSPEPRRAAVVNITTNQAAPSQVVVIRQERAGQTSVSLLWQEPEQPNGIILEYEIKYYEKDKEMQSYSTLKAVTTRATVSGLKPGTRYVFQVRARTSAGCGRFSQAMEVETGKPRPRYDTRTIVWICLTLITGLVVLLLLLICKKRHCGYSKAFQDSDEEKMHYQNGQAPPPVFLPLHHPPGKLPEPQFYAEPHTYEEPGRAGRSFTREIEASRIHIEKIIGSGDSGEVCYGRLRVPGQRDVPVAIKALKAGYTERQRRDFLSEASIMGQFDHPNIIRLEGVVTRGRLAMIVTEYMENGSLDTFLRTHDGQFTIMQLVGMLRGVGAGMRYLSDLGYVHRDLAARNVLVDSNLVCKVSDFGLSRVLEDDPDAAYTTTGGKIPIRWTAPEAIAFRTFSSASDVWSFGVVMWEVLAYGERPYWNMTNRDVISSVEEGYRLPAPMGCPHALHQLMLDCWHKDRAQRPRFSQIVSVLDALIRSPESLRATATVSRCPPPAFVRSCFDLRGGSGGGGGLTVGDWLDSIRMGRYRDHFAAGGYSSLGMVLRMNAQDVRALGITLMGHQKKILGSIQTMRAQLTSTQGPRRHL
SGK110 (human), sequence (P0C264 whole entry, looked up): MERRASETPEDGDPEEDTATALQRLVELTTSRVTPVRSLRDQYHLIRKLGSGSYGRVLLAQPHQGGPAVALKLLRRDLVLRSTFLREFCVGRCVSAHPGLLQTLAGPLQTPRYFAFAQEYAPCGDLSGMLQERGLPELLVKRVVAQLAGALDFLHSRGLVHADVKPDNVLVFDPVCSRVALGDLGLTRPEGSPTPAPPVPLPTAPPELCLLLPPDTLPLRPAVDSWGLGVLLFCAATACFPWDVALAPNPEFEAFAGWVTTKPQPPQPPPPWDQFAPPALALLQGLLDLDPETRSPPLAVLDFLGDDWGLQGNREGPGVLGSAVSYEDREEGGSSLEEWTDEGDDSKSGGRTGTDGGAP
NEK7 (human), sequence (Q8TDX7 whole entry, looked up): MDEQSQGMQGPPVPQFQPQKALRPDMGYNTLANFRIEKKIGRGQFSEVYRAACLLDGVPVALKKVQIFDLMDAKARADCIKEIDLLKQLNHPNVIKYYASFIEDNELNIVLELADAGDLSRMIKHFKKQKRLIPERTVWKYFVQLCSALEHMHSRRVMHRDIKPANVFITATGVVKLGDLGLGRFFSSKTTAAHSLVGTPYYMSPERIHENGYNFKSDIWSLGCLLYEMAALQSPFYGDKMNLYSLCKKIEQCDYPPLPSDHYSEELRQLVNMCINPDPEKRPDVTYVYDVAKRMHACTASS

SMILES	kinase still bound, per cent of control (MAPK14 (human)) [%]	kinase still bound, per cent of control (EPHA8 (human)) [%]	kinase still bound, per cent of control (ABL2 (human)) [%]	kinase still bound, per cent of control (MAP3K9 (human)) [%]	kinase still bound, per cent of control [1] [%]	kinase still bound, per cent of control (NTRK2 (human)) [%]	kinase still bound, per cent of control (SGK110 (human)) [%]	kinase still bound, per cent of control (MAPK9 (human)) [%]	kinase still bound, per cent of control (CSNK1A1L (human)) [%]	kinase still bound, per cent of control (MAPK8 (human)) [%]	kinase still bound, per cent of control (PHKG1 (human)) [%]	kinase still bound, per cent of control (SLK (human)) [%]	kinase still bound, per cent of control (SRPK2 (human)) [%]	kinase still bound, per cent of control (PIM3 (human)) [%]	kinase still bound, per cent of control (YES1 (human)) [%]	kinase still bound, per cent of control (MYO3B (human)) [%]	kinase still bound, per cent of control (STK17B (human)) [%]	kinase still bound, per cent of control (STK4 (human)) [%]	kinase still bound, per cent of control (PIK3C2B (human)) [%]	kinase still bound, per cent of control (MAP3K10 (human)) [%]	other results
Cn1c(=O)n(-c2ccc(C(C)(C)C#N)cc2)c2c3cc(-c4cnc5ccccc5c4)ccc3ncc21	100	100	100	100	100	100	100	100	100	100	100	100	100	100	100	100	100	100	2.8	100	kinase still bound, per cent of control (RIOK2 (human)): 100%; kinase still bound, per cent of control (PIK3CD (human)): 7.2%; kinase still bound, per cent of control (NEK7 (human)): 100%; kinase still bound, per cent of control (LATS1 (human)): 100%; kinase still bound, per cent of control (DCLK1 (human)): 100%; kinase still bound, per cent of control (MKNK2 (human)): 100%; kinase still bound, per cent of control (PLK3 (human)): 100%; kinase still bound, per cent of control (STK11 (human)): 100%; kinase still bound, per cent of control (ANKK1 (human)): 100%; kinase still bound, per cent of control (CDK16 (human)): 100%; kinase still bound, per cent of control (CDC42BPA (human)): 100%; kinase still bound, per cent of control (TAOK3 (human)): 100%; kinase still bound, per cent of control (INSRR (human)): 100%; kinase still bound, per cent of control (MAP2K6 (human)): 100%; kinase still bound, per cent of control (LIMK2 (human)): 100%; kinase still bound, per cent of control (PRKAA1 (human)): 100%; kinase still bound, per cent of control (STK17A (human)): 100%; kinase still bound, per cent of control (MYLK2 (human)): 100%; kinase still bound, per cent of control [2]: 100%; kinase still bound, per cent of control (SRC (human)): 100%
C=CC(=O)Nc1cccc(Oc2nc(Nc3ccc(N4CCN(C)CC4)cc3OC)ncc2Cl)c1	100	100	100	35	26	100	100	100	100	17	7.7	100	100	100	100	100	100	100	100	100	kinase still bound, per cent of control (RIOK2 (human)): 12%; kinase still bound, per cent of control (PIK3CD (human)): 100%; kinase still bound, per cent of control (NEK7 (human)): 12%; kinase still bound, per cent of control (LATS1 (human)): 100%; kinase still bound, per cent of control (DCLK1 (human)): 1%; kinase still bound, per cent of control (MKNK2 (human)): 2%; kinase still bound, per cent of control (PLK3 (human)): 100%; kinase still bound, per cent of control (STK11 (human)): 100%; kinase still bound, per cent of control (ANKK1 (human)): 100%; kinase still bound, per cent of control (CDK16 (human)): 100%; kinase still bound, per cent of control (CDC42BPA (human)): 100%; kinase still bound, per cent of control (TAOK3 (human)): 100%; kinase still bound, per cent of control (INSRR (human)): 13%; kinase still bound, per cent of control (MAP2K6 (human)): 100%; kinase still bound, per cent of control (LIMK2 (human)): 100%; kinase still bound, per cent of control (PRKAA1 (human)): 28%; kinase still bound, per cent of control (STK17A (human)): 1.6%; kinase still bound, per cent of control (MYLK2 (human)): 100%; kinase still bound, per cent of control [2]: 100%; kinase still bound, per cent of control (SRC (human)): 100%
O=C(NOC[C@H](O)CO)c1ccc(F)c(F)c1Nc1ccc(I)cc1F	100	94	90	95	74	100	100	88	80	92	100	93	100	100	73	99	100	100	100	100	kinase still bound, per cent of control (PIK3CD (human)): 40%; kinase still bound, per cent of control (NEK7 (human)): 95%; kinase still bound, per cent of control (LATS1 (human)): 100%; kinase still bound, per cent of control (DCLK1 (human)): 100%; kinase still bound, per cent of control (MKNK2 (human)): 100%; kinase still bound, per cent of control (PLK3 (human)): 100%; kinase still bound, per cent of control (STK11 (human)): 83%; kinase still bound, per cent of control (ANKK1 (human)): 64%; kinase still bound, per cent of control (CDK16 (human)): 100%; kinase still bound, per cent of control (CDC42BPA (human)): 100%; kinase still bound, per cent of control (TAOK3 (human)): 89%; kinase still bound, per cent of control (INSRR (human)): 81%; kinase still bound, per cent of control (MAP2K6 (human)): 100%; kinase still bound, per cent of control (LIMK2 (human)): 100%; kinase still bound, per cent of control (PRKAA1 (human)): 100%; kinase still bound, per cent of control (STK17A (human)): 100%; kinase still bound, per cent of control (MYLK2 (human)): 100%; kinase still bound, per cent of control (SRC (human)): 69%
